Target: T1, Inositol monophosphatase 1 (Bos taurus, UniProt P20456)
T1 sequence (P20456 whole entry): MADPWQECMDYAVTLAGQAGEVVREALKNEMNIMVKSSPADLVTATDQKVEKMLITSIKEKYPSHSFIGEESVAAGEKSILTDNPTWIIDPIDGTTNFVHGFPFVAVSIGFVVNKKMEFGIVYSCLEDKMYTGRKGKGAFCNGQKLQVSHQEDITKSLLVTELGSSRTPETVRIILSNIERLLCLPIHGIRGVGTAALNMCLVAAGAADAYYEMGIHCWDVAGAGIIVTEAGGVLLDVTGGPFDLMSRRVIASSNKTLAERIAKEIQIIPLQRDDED
Assay: Tested for the inhibitory activity against recombinant bovine brain myo-inositol monophosphatase

Row | SMILES | IC50
1 | O=C(NCc1cccc(CC(Oc2ccc(O)cc2)(P(=O)(O)O)P(=O)(O)O)c1)c1ccc(Cl)c(Cl)c1 | 0.08 µM
2 | O=P(O)(O)C(Cc1ccccc1)(O[C@@H]1CC[C@@H](O)C[C@@H]1O)P(=O)(O)O | 19.2 µM
3 | O=P(O)(O)C(CCCCCCc1ccccc1)(O[C@@H]1CC[C@@H](O)C[C@@H]1O)P(=O)(O)O | 2.5 µM
4 | O=P(O)(O)C(Oc1ccc(O)cc1)P(=O)(O)O | 27 µM
5 | O=P(O)(O)C(O)(Cc1ccc(Cl)c(Cl)c1)P(=O)(O)O | 23 µM
6 | CC(O[C@@H]1CC[C@@H](O)C[C@@H]1O)(P(=O)(O)O)P(=O)(O)O | 4 µM
7 | O=P(O)(O)C(Oc1ccc(O)cc1O)P(=O)(O)O | 40.8 µM
8 | CC(Oc1ccc(O)cc1O)(P(=O)(O)O)P(=O)(O)O | 4.4 µM
9 | O=P(O)(O)C(Cc1ccccc1)(Oc1ccc(O)cc1)P(=O)(O)O | 0.5 µM
10 | CC(Oc1ccc(O)cc1)(P(=O)(O)O)P(=O)(O)O [L-690330] | 0.33 µM

Reference: ChEMBL document CHEMBL1127175, “4-hydroxyphenoxymethylene bisphosphonic acid derivatives: potent, non-hydrolysable inhibitors of MYO-inositol monophosphatase” (Bioorg Med Chem Lett, 1993)
